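Cells were grown in 96-well plates and exposed to each compound for 48 hours at five concentrations; endpoints were interpolated linearly between bracketing concentrations, or set to the highest concentration if not reached. GI50 = concentration required for 50% inhibition of growth.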 Calls of active or inactive are those of the source. Cut-off read from the data, not from the text of the source: active = GI50 up to about 1.1 µM and inactive = higher.
Experiments:
Assay in all cases: inhibition of tumour cell growth, NCI panel, 48 h
TK-10 = tested on: TK-10
SNB-75 = tested on: SNB-75
KM12 = tested on: KM12
HOP-62 = tested on: HOP-62
M14 = tested on: M14
ACHN = tested on: ACHN
DLD-1 = tested on: DLD-1
NCI-H460 = tested on: NCI-H460
SK-MEL-5 = tested on: SK-MEL-5
SNB-19 = tested on: SNB-19
SF-268 = tested on: SF-268
K562 = tested on: K562
HCT-15 = tested on: HCT-15
786-0 = tested on: 786-0
UACC-257 = tested on: UACC-257
A498 = tested on: A498
IGROV-1 = tested on: IGROV-1
HL-60 = tested on: HL-60
BT-549 = tested on: BT-549
MDA-MB-231 = tested on: MDA-MB-231

| Compound | GI50 (TK-10) | GI50 (SNB-75) | GI50 (KM12) | GI50 (HOP-62) | GI50 (M14) | GI50 (ACHN) | GI50 (DLD-1) | GI50 (NCI-H460) | GI50 (SK-MEL-5) | GI50 (SNB-19) | GI50 (SF-268) | GI50 (K562) | GI50 (HCT-15) [µM] | GI50 (786-0) | GI50 (UACC-257) | GI50 (A498) | GI50 (IGROV-1) | GI50 (HL-60) | GI50 (BT-549) | GI50 (MDA-MB-231) |
| --- | --- | --- | --- | --- | --- | --- | --- | --- | --- | --- | --- | --- | --- | --- | --- | --- | --- | --- | --- | --- |
| CCCCCCCCCCCCCCCC(=O)OCC1OC(n2cc(F)c(=O)[nH]c2=O)C(NC(=O)N(CCCl)N=O)C(O)C1O (configuration not stated) | 10.1 µM (inactive) | 0.228 µM (active) | 1.86 µM (inactive) | 0.354 µM (active) | 4.06 µM (inactive) | 1.64 µM (inactive) | 2.84 µM (inactive) | 0.152 µM (active) | 3.94 µM (inactive) | 0.979 µM (active) | 0.0246 µM (active) | 1.76 µM (inactive) | 4.95 | 0.166 µM (active) | 5.94 µM (inactive) | 4.44 µM (inactive) | 4.43 µM (inactive) | 0.428 µM (active) |  |  |
| CC(=O)O[C@H]1C(=O)[C@@]2(C)[C@H]([C@H](OC(=O)c3ccccc3)[C@]3(O)C[C@H](OC(=O)[C@H](O)[C@@H](NC(=O)c4ccccc4)c4ccccc4)C(C)=C1C3(C)C)[C@]1(OC(C)=O)CO[C@@H]1C[C@@H]2O [PACLITAXEL] | 0.113 µM (active) |  |  | 0.0129 µM (active) | 0.0229 µM (active) | 0.661 µM (active) | 0.0448 µM (active) | 0.00296 µM (active) | 0.00388 µM (active) | 0.0121 µM (active) | 0.00658 µM (active) |  |  | 0.0337 µM (active) |  | 0.107 µM (active) | 0.00708 µM (active) | 0.00427 µM (active) | 0.0327 µM (active) | 0.054 µM (active) |
| S=c1sc2c(Cl)nc(Cl)nc2n1-c1ccccc1 | > 100 µM (inactive) | 82.6 µM (inactive) | > 100 µM (inactive) | 59.6 µM (inactive) | 21.1 µM (inactive) | > 100 µM (inactive) | 16.2 µM (inactive) | > 100 µM (inactive) | 64.4 µM (inactive) | > 100 µM (inactive) | 11.1 µM (inactive) | 29 µM (inactive) | 18.1 | > 100 µM (inactive) | 53 µM (inactive) | > 100 µM (inactive) | 18.2 µM (inactive) | 23.5 µM (inactive) |  |  |
| CC(=O)NNc1nc(C)c(C(=O)NNC(=O)C(=O)Nc2ccc(C)cc2[N+](=O)[O-])s1 | > 100 µM (inactive) | > 100 µM (inactive) | > 100 µM (inactive) | > 100 µM (inactive) | > 100 µM (inactive) | > 100 µM (inactive) | > 100 µM (inactive) | > 100 µM (inactive) | > 100 µM (inactive) | > 100 µM (inactive) | > 100 µM (inactive) | > 100 µM (inactive) | > 100 | > 100 µM (inactive) | > 100 µM (inactive) | > 100 µM (inactive) | > 100 µM (inactive) | > 100 µM (inactive) |  |  |
| CCCCC(C(=O)CCC(=O)Nc1ccc(Cl)c(Cl)c1)C(=O)C(C)C (configuration not stated) | 90.4 µM (inactive) | 21.6 µM (inactive) | 84.7 µM (inactive) | > 100 µM (inactive) | 82.8 µM (inactive) | 31.2 µM (inactive) | > 100 µM (inactive) | > 100 µM (inactive) | > 100 µM (inactive) | > 100 µM (inactive) | > 100 µM (inactive) | 40.9 µM (inactive) | > 100 | > 100 µM (inactive) | > 100 µM (inactive) | > 100 µM (inactive) | > 100 µM (inactive) | > 100 µM (inactive) |  |  |
| COc1ccc(C2Oc3c(cc(O)c(OC)c3C)[C@@H]2C)cc1OC (some centres not stated) | > 100 µM (inactive) | 29.7 µM (inactive) | > 100 µM (inactive) | > 100 µM (inactive) | > 100 µM (inactive) | > 100 µM (inactive) | > 100 µM (inactive) | > 100 µM (inactive) | 31.6 µM (inactive) | > 100 µM (inactive) | > 100 µM (inactive) | 47.9 µM (inactive) | > 10 | > 100 µM (inactive) | 45 µM (inactive) | > 100 µM (inactive) | > 100 µM (inactive) | 50.2 µM (inactive) |  |  |
| O=C(Nc1nnn[nH]1)c1nc(O)cc(-c2ccccc2)n1 | > 100 µM (inactive) | > 100 µM (inactive) | > 100 µM (inactive) | > 100 µM (inactive) | > 100 µM (inactive) | > 100 µM (inactive) | > 100 µM (inactive) | > 100 µM (inactive) | > 100 µM (inactive) | > 100 µM (inactive) | > 100 µM (inactive) | > 100 µM (inactive) |  | > 100 µM (inactive) | > 100 µM (inactive) | > 100 µM (inactive) | > 100 µM (inactive) | > 100 µM (inactive) |  |  |
| O=c1[nH]cc(OCC(F)(F)F)c(=O)[nH]1 | > 100 µM (inactive) | > 100 µM (inactive) | > 100 µM (inactive) | > 100 µM (inactive) | > 100 µM (inactive) | > 100 µM (inactive) | > 100 µM (inactive) | > 100 µM (inactive) | > 100 µM (inactive) | > 100 µM (inactive) | > 100 µM (inactive) | > 100 µM (inactive) | > 100 | > 100 µM (inactive) | > 100 µM (inactive) | > 100 µM (inactive) | > 100 µM (inactive) | > 100 µM (inactive) |  |  |
| COc1ccc(C2C(C)C(=O)C(C)C(c3ccc(OC)cc3)N2N=O)cc1 (configuration not stated) | 90.6 µM (inactive) | 26.5 µM (inactive) | > 678 µM (inactive) | 87.1 µM (inactive) | 537 µM (inactive) | 175 µM (inactive) | > 1000 µM (inactive) | > 659 µM (inactive) | > 575 µM (inactive) | 195 µM (inactive) | 171 µM (inactive) | > 1000 µM (inactive) | > 1000 | 84.3 µM (inactive) | > 703 µM (inactive) | 203 µM (inactive) | 165 µM (inactive) | > 1000 µM (inactive) |  | 27.2 µM (inactive) |
| CC(C)C12C=CC(C)(CC1)n1c(=O)c3cc4ccccc4cc3c(=O)n12 (configuration not stated) | 29.9 µM (inactive) | 33.7 µM (inactive) | 50.8 µM (inactive) | > 100 µM (inactive) | 76.4 µM (inactive) | 36.4 µM (inactive) | 38.7 µM (inactive) | 45.5 µM (inactive) | 32 µM (inactive) | 40.5 µM (inactive) | 67.3 µM (inactive) | 34.4 µM (inactive) | 33.3 | 55.3 µM (inactive) | 63.1 µM (inactive) | 22.5 µM (inactive) | 47.8 µM (inactive) | 34 µM (inactive) |  |  |
| CC(C)COC(=O)N1N=NC2C3OC(CC3=O)C21 (configuration not stated) | > 100 µM (inactive) | > 100 µM (inactive) | > 100 µM (inactive) | > 100 µM (inactive) | > 100 µM (inactive) | > 100 µM (inactive) | > 100 µM (inactive) | > 100 µM (inactive) | > 100 µM (inactive) | > 100 µM (inactive) | > 100 µM (inactive) | > 100 µM (inactive) | > 100 | > 100 µM (inactive) | > 100 µM (inactive) | > 100 µM (inactive) | > 31.6 µM (inactive) | > 100 µM (inactive) |  |  |
| Nc1nc(N)c2ncn(CCCC(c3ccccc3)P(=O)(O)O)c2n1 (configuration not stated) | > 100 µM (inactive) | > 100 µM (inactive) | > 100 µM (inactive) | > 100 µM (inactive) | > 100 µM (inactive) | > 100 µM (inactive) | > 100 µM (inactive) | > 100 µM (inactive) | > 100 µM (inactive) | > 100 µM (inactive) | > 100 µM (inactive) | > 100 µM (inactive) | > 100 | > 100 µM (inactive) | > 100 µM (inactive) | > 100 µM (inactive) | > 100 µM (inactive) | > 100 µM (inactive) |  |  |
| COC(=O)Nc1nc2cc(Br)ccc2[nH]1 | 58.7 µM (inactive) | 56 µM (inactive) | 9.29 µM (inactive) | 57.3 µM (inactive) | 43.9 µM (inactive) | 95.5 µM (inactive) | 42.3 µM (inactive) | 24.9 µM (inactive) | 8.75 µM (inactive) | > 10 µM (inactive) | > 100 µM (inactive) | 17.6 µM (inactive) | 8.34 | 53.2 µM (inactive) | > 100 µM (inactive) | 67.8 µM (inactive) | 35.9 µM (inactive) | 13.3 µM (inactive) |  |  |
| CCOC(=O)C1S/C(=N/c2ccc(Cl)cc2C)N=C1C (configuration not stated) | 24.7 µM (inactive) | 23.6 µM (inactive) | 15.5 µM (inactive) | 24.8 µM (inactive) | 19.5 µM (inactive) | 19.8 µM (inactive) | 15.1 µM (inactive) | 22 µM (inactive) | 16.2 µM (inactive) | 26.6 µM (inactive) | 15.7 µM (inactive) | 17.7 µM (inactive) | 18.5 | 15.9 µM (inactive) | 22.2 µM (inactive) | 37.1 µM (inactive) | 25.1 µM (inactive) | 4.34 µM (inactive) |  |  |
| Cc1cc(N(CCC#N)S(=O)(=O)c2ccccc2)ccc1/C=C1N=C(/C=C/c2ccccc2)OC\1=O | > 100 µM (inactive) | > 100 µM (inactive) | > 100 µM (inactive) | > 100 µM (inactive) | > 100 µM (inactive) | > 100 µM (inactive) | > 100 µM (inactive) | > 100 µM (inactive) | 77.6 µM (inactive) | > 100 µM (inactive) | > 100 µM (inactive) | 94.6 µM (inactive) | > 100 | > 100 µM (inactive) | > 100 µM (inactive) | > 100 µM (inactive) | > 100 µM (inactive) | > 100 µM (inactive) |  |  |

Source: ChEMBL document CHEMBL1201862, “PubChem BioAssay data set” (2004)
